Test results: article PMC10480310 (iScience, 2023)

Biological target: TEK receptor tyrosine kinase (Homo sapiens, UniProt Q02763)
Assay: phospho-TEK ELISA on lysates of Ang1-stimulated HUVECs
Format: cell-based

Sequence of TEK receptor tyrosine kinase (Q02763 23-1124): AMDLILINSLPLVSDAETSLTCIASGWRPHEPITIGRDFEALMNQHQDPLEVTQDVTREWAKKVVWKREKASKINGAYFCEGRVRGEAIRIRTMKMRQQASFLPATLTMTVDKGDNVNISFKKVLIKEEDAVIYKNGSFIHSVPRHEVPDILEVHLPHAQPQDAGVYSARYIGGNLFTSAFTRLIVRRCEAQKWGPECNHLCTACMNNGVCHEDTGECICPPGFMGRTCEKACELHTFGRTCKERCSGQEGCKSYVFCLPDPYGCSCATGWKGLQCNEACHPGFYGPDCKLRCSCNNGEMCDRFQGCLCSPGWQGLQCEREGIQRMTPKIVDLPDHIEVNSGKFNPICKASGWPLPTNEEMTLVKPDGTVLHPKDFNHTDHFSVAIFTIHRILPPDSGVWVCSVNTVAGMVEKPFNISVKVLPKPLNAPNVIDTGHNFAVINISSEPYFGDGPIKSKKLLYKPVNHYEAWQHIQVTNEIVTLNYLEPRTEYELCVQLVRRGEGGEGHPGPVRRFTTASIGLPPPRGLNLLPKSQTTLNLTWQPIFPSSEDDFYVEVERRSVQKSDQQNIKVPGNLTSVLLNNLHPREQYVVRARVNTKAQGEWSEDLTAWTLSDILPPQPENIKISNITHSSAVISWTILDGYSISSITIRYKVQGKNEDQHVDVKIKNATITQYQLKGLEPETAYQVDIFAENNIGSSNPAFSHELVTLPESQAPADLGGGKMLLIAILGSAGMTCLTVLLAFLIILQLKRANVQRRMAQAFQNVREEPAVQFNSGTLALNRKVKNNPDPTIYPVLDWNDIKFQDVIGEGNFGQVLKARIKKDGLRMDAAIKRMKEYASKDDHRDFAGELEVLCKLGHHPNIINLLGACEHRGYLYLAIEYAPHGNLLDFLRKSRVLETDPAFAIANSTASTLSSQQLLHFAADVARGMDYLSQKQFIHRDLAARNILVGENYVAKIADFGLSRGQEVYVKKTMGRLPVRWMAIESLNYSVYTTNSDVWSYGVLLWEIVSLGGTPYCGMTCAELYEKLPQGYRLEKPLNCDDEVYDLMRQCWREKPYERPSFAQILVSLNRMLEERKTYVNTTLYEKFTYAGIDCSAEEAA

IC50: 4.72 µM
Structure (SMILES): c1cc(-c2cnn3cc(-c4ccc(OCCN5CCCCC5)cc4)cnc23)ccn1 [DM, Dorsomorphin]
